# Assay results as given in patent US5770604A, “Aconitine compound and an antipyretic/analgesic/anti-inflammatory agent” (priority 1994, dated 1998).
# Experiments:
# Format in all cases: in vivo, mice (Std:ddY, male)
# [1] = test system: nociceptive response (licking); assay: Analgesic activity by the hot-plate method; conditions: mouse, 52° C. plate, solution 10 mg/10 ml, mean ± standard error
# Experimental: Measurement of Analgesic Activity by the Hot-Plate Method
# Std:ddY Strain male mice (20-25 g) were fasted for one day before the experiment, and were used. After compounds shown in Table 1 were formed to the tartaric acid salts, these compounds were dissolved in 0.9% physiologocal saline solution at the rate of 10 mg/10 ml, respectively and these solution were used as test compound solution. In a control, 0.9% physiological saline solution was used. Mice were placed on a cyrindric hot plate (diameter: 22 cm, height: 11 cm) made of copper which was fixed in a water bath adjusted to 52° C. so that each animal's four paws came into contact with the plate and the time taken to show the nociceptive response (licking) as an index of pain was measured. Mice showing response latency above 25 seconds were excluded from the experiment. To prevent a burn damage of mouse tissue by heating, cutoff time of 50 seconds was defined. The results were described as an inhibition rate (%) obtained from the following equation.
# Inhibition rate (%)=(A-B)×100/(50-B)
# A: Response latency (seconds) after the administration of test compound solution
# B: Response latency (seconds) before the administration of test compound solution
# [2] = test system: pain threshold (tail-pressure); assay: Analgesic activity by the tail-pressure method (s.c.); conditions: mouse, 10 mg/10 ml at 10 ml/kg s.c., 1 hour after administration, mean ± standard error
# Experimental: (1) Measurement of Analgesic Activity by the Tail-Pressure Method
# Std:ddY Strain male mice (20-25 g) were fasted for one day before the experiment, and were used. After test compounds shown in Table 1 was formed to a salt with tartaric acid, this salt was dissolved in 0.9% physiological saline solutions at the rate of 10 mg/10 ml to give the test compoun d solution . As a control, 0.9% physiological saline solution was used. A tail-pressure apparatus was used in this experiments. Before the administration of test compounds, the pain threshold was measured twice at intervals of 30 minutes and those mice indicating a pain threshold of 50 to 100 mmHg were selected and used. The pain threshold of each mouse was measured at 1 hour after test compound solution mentioned above was administered at 10 ml/kg, s.c. 0.9% Physiological saline solution as a control was administered at 10 ml/kg, s.c . The results were described as an inhibition rate (%) obtained from the following equation. Cutoff level of pressure was defined to be 230 mmHg for the prevention of the damage of mouse tail.
# Inhibition rate (%)=(A-B)×100/(C-B)
# A: Pain threshold (mmHg) after the administration of test compound solution
# B: Pain threshold (mmHg) before the administration of test compound solution
# C: Cutoff pressure (230 mmHg)
# [3] = test system: pain threshold (tail-pressure); assay: Tail-pressure method, experiment combined with morphine administration; conditions: for Inhibition rate: mean ± standard error, n = 7
# Experimental: (3) Experiment Combined with Morphine Administration
# Std:ddY Strain male mice (20-25 g) were fasted for one day before the experiment, and were used. In this experiment, the tartaric acid salt of a compound of number (2) in Table 1 and morphine hydrochloride were used. The tartaric acid salt of a compound of number (2) was dissolved in 0.9% physiological saline solution at the rate of 7 mg/10 ml. Morphine hydrochloride was dissolved in 0.9% physiological saline solution at the rates of 5 mg/2 ml, 3 mg/2 ml and 1 mg/2 ml. As a control, 0.9% phisiological saline solution was used. A tail-pressure apparatus was used in this experiments. Before the administration of test compounds, the pain threshold was measured twice at intervals of 30 minutes and those mice indicating a pain threshold of 50 to 100 mmHg were selected and used. Mice was divided in the following four groups, (i) control group, (ii) the administration group of the tartaric acid salt of a compound of number (2), (iii) the administration group of morphine hydrochloride and (iv) the combined administration group with the tartaric acid salt of a compound of number (2) and morphine hydrochloride. In the administration group of the tartaric acid salt of a compound of number (2), 0.9% physiological saline solution of this tartaric acid salt mentioned above was injected s.c. at the rate of 10 ml/kg and, 30 minutes later, 0.9% physiological saline solution was injected i.v. at the rate of 2 ml/kg. In the administration group of morphine hydrochloride, 0.9% physiological saline solution was injected s.c. at the rate of 10 ml/kg and, 30 minutes later, the above physiological saline solution of morphine hydrochloride was injected i.v. at the rate of 2 ml/kg. In the combined administration group with the tartaric acid salt of a compound of number (2) and morphine hydrochloride,the above physiological saline solution of the tartaric acid salt of a compound of number (2) was injected s.c. at the rate of 10 ml/kg and, 30 minutes later, the above physiological saline solution of morphine hydrochloride was injected i.v. at the rate of 2 ml/kg. In control group, 0.9% physiological saline solution was injected s.c. at the rate of 10 ml/kg and, 30 minutes later, 0.9% physiological saline solution was injected i.v. at the rate of 2 ml/kg. Each pain threshold was measured 10, 20 and 30 minutes after an intravenous injection. The results were described in Table 9 as an inhibition rate (%) indicating in the preceding paragraph (1).
smiles,measurement,setting,value
"CCN1CC2(COC)C(O)CC(OC)C34C5CC6(O)C(OC)C(OC(C)=O)C(O)(C5C6OC(=O)c5ccc(Cl)cc5)C(C(OC)C23)C14 (stereo not drawn) [(2), 15-O-acetyl-14-O-p-chlorobenzoylaconine]",Inhibition rate (hot-plate method),[1],76 ± 11%
same,Inhibition rate (tail-pressure method),[2],43 ± 10%
same,Inhibition rate,"[3]; compound (2) 7 mg/kg s.c. alone (morphine 0), 10 min after i.v. injection",30 ± 11%
same,Inhibition rate,"[3]; compound (2) 7 mg/kg s.c. alone (morphine 0), 20 min after i.v. injection",35 ± 12%
same,Inhibition rate,"[3]; compound (2) 7 mg/kg s.c. alone (morphine 0), 30 min after i.v. injection",37 ± 11%
same,Inhibition rate,"[3]; compound (2) 7 mg/kg s.c. combined with morphine 1 mg/kg i.v., 10 min",31 ± 12%
same,Inhibition rate,"[3]; compound (2) 7 mg/kg s.c. combined with morphine 1 mg/kg i.v., 20 min",36 ± 10%
same,Inhibition rate,"[3]; compound (2) 7 mg/kg s.c. combined with morphine 1 mg/kg i.v., 30 min",32 ± 7%
same,Inhibition rate,"[3]; compound (2) 7 mg/kg s.c. combined with morphine 3 mg/kg i.v., 10 min",47 ± 8%
same,Inhibition rate,"[3]; compound (2) 7 mg/kg s.c. combined with morphine 3 mg/kg i.v., 20 min",50 ± 9%
same,Inhibition rate,"[3]; compound (2) 7 mg/kg s.c. combined with morphine 3 mg/kg i.v., 30 min",38 ± 12%
same,Inhibition rate,"[3]; compound (2) 7 mg/kg s.c. combined with morphine 5 mg/kg i.v., 10 min",73 ± 13%
same,Inhibition rate,"[3]; compound (2) 7 mg/kg s.c. combined with morphine 5 mg/kg i.v., 20 min",77 ± 9%
same,Inhibition rate,"[3]; compound (2) 7 mg/kg s.c. combined with morphine 5 mg/kg i.v., 30 min",78 ± 9%
same,"effect on the analgesic effect of morphine, in words","[3]; mouse, compound s.c., morphine i.v.",greatly potentiated the analgesic effect of morphine
